Laboratory results published in patent publication US5225182A, “Vectored drug delivery system using a cephaloplastin linking agent and a methed of using the system” (priority 1991, dated 1993).

Legend:
bones = assay: Progesterone delivery to bones (APAAP staining); assay type: in vivo, mice
Experimental: Thirty-nine mg of finely divided progesterone were added to 2.4 ml of linking agent containing Composition C and injected into mice (see Example XII). The drug was examined for its presence in bones after 2days by taking sections of bone from ribs and staining the sections with monoclonal antibodies to progesterone using the […] labeling system as described by Cordell et al. in J. Histochem. Cytochem. 32:219 (1984).

[1] = Drug release in vitro by column elution method; assay type: physicochemical; conditions: after 14 hrs, 37° C, saline 0.4 ml/min
Experimental: Using the conjugate prepared in Example XXVI, the drug release was estimated in vitro by the column elution method described below.
2.0 ml of deionized water was added to 11.6 mg of dry (lyophilized) conjugate as prepared in Example XXVI. The slurry was pipetted into 140 ×7 mm glass columns. The ends of each of the columns were filled with chromatographic caps packed with glass wool. The ends were then attached to threaded zero-volume collectors and connected to 10 mm 1:0 teflon tubing. The columns were placed in a circulating water bath at 37 ° C. Saline was pumped through columns at 0.4 ml/min flow rate with an HPLC pump (ALTEX 110A). Fractions were collected as a function of time at 4° C. and analyzed by uv/vis spectroscopy method. Results: Approximately 20% drug release was found in samples taken after 14 hrs.

liver = assay: Liver function tests on blood samples; assay type: in vivo, mice; conditions: after ten days of treatment
Experimental: Four groups of six male F1 hybrid mice (C57BL/6X DBA/2) 6-8 weeks old (20-25g body weight) were used for the study. […] Three additional mice were used as normal untreated controls.
In Examples VIII and IX, 8 mg/kg doses were administered intravenously.
The total number of nucleated cells, that is, the total number of total white blood cells, was counted with a Coulter counter and a blood film was prepared simultaneously for lymphocyte-to-neutrophil (L/N) ratio.
Liver function tests were performed on blood samples after ten days of treatment with the solutions (see Example III). Four doses were administered each day.

Colon 38 tumors = assay: Antitumor tests, in vitro; assay type: cell-based, murine; conditions: Colon 38, in vitro, 21 days
Experimental: Lewis lung murine tumors of the biological type lung carcinoma were implanted subcutaneously in the group B C57BL/6 mice. Colon 38 of the histological type colon carcinoma was implanted in group C57BL/6. Three mice from group A were implanted with Lewis lung tumors and the remaining three were implanted with colon 38 tumors subcutaneously. Three mice from control group D were implanted with Lewis lung tumors and three with colon 38 tumors.
The antitumor activity of both solutions was tested in vitro. Colon 38 tumors were used for in vitro screening of the antitumor effect. Tumors were place in 10ml solution of each of the agents. The tumors were removed after 21 days of culture growth and examined for weight loss and shrinkage in size.

lung = assay: Biodistribution by gamma camera with technicium Tc-99 m; assay type: in vivo, mice; conditions: Tc-99 m given 30 min after injection
Experimental: Four groups of six male F1 hybrid mice (C57BL/6X DBA/2) 6-8 weeks old (20-25g body weight) were used for the study. Group A received unconjugated cis-Platinum; the second group, B, received cis-Platinum conjugated with the organ-specific vectoring reagent macroaggregated albumin (MAA). Group C received cis-Platinum conjugated with colloidal sulfur particles. Group D was injected with MAA alone, with no cis-Platinum conjugated or unconjugated, and served as controls. Three additional mice were used as normal untreated controls.
(§1) All experimental animals were injected intravenously (IV) with 0.5 mg doses of cis-Platinum to a final concentration of […] body weight, maximum volume 0.2 mL/mouse. The above protocol was used in Examples II-VI. In Examples VIII and IX, 8 mg/kg doses were administered intravenously.
Thirty minutes after injecting the mice with either agent, one millicurie of technicium Tc-99 m was injected IV and the mice placed under a gamma camera to trace the cis-Platinum.
Similar patterns of activity were seen when both groups of mice were injected after three days.

L1210 leukemia cells = assay: Effect on in vivo tumor cells (L1210 leukemia); set-up: species or system DBA mice; conditions: 8 mg/kg iv
Experimental: as §1
10^4 L1210 leukemia cells were transplanted intravenously (iv) into DBA mice. Three days later the animals received 8 mg/kg cis-Platinum in saline or 8 mg/kg cisplatinum-conjugate administered (iv) (3 animals/group)

K1210 leukemia cells = assay: Effect on mice implanted with leukemia cells; assay type: in vivo, DBF mice; conditions: 8 mg/kg i.v.
Experimental: as §1
DBF mice were planted intraperitoneally with 10^4 K1210 leukemia cells. Three days later, 8 mg/kg of cis-Platinum in saline and cis-Platinum conjugate preparation was given intravenously via a tail vein.

## progesterone
bones; after 2 days, sections of rib bone
  delivery to the bones: effectively delivered to the bones
bones; mouse, in vivo
  retention in bones as an active molecule: up to 21 days
[1]
  drug release: Approximately 20%

## N.N.[Cl-].[Cl-].[Pt+2] [cis-Pt, cis-Platinum (II) Diammine Dichloride]
liver
  Prothrombin clotting time: 16
  SGOT: 120
  SGPT: 112
  Serum bilirubin: 3.8
Colon 38 tumors
  Shrinkage: 41%
  Weight loss: 63%
lung
  distribution of the radioisotope in organs in the abdomen: even distribution of the radioisotope in all organs in the abdomen
L1210 leukemia cells
  Incr. Life Span (ILS): 111%
K1210 leukemia cells
  % ILS: 80%
